Source: patent US20150272939A1, “Identification of Small Molecule Inhibitors of Jumonji AT-Rich Interactive Domain 1A (JARID1A) and 1B (JARID1B) Histone Demethylase” (Yale University, priority 2012, published 2015)
“Also recorded” adds a separate entry of the source.

Assays:
[1] = test system: HeLa cells overexpressing full-length JARID1B; experiment: H3K4me3 immunofluorescence in cells overexpressing 3xHA-JARID1B; assay type: cell-based; settings: 10 μM or 30 μM, 24 hours
Method: pcDNA3.1(−)-3×HA-JARID1B construct was generated by inserting 3×HA-JARID1B between BamHI and XbaI of pcDNA3.1(−) vector. MCF7 cells were plated on 12 mm circle coverslips in 24-well plates and transfected with pcDNA3.1(−)-3×HA-JARID1B in the presence of 0, 10 or 30 μM PBIT. After incubation for 24 hours, the cells were fixed, permeabilized, and stained with antibodies against HA and H3K4me3 for 2 hours. The coverslips were then incubated with anti-mouse Alexa-546 (Invitrogen, A-11003) and goat anti-rabbit Envision (Dako, K4002) for 1 hour. Cy5-Tyramide (Perkin Elmer, NEL775001KT) and 4,6-diamidino-2-phenylindole dihydrochloride (DAPI) (Biotium, 40011) were used to visualize 3×HA-tagged JARID1B and nuclei, respectively. The slides were sealed and analyzed under an Olympus fluorescence microscope.
To determine whether JARID1B could be inhibited by PBIT in cells, HeLa cells overexpressing full-length JARID1B were treated with 10 μM or 30 μM PBIT. As expected, in JARID1B transfected cells, the levels of H3K4me3 decreased dramatically compared with untransfected cells (FIG. 5).

JMJD3 = molecular target: T1, JMJD3 (Homo sapiens, UniProt O15054); experiment: FLAG-JMJD3 H3K27me3 demethylase assay with AlphaScreen detection; assay type: biochemical; settings: compound 10 μM, 64 nM bio-H3K27me3 peptide
T1 construct: FLAG (N); purchased BPS Bioscience 50115
T1 sequence (O15054 1-1682 isoform O15054-1): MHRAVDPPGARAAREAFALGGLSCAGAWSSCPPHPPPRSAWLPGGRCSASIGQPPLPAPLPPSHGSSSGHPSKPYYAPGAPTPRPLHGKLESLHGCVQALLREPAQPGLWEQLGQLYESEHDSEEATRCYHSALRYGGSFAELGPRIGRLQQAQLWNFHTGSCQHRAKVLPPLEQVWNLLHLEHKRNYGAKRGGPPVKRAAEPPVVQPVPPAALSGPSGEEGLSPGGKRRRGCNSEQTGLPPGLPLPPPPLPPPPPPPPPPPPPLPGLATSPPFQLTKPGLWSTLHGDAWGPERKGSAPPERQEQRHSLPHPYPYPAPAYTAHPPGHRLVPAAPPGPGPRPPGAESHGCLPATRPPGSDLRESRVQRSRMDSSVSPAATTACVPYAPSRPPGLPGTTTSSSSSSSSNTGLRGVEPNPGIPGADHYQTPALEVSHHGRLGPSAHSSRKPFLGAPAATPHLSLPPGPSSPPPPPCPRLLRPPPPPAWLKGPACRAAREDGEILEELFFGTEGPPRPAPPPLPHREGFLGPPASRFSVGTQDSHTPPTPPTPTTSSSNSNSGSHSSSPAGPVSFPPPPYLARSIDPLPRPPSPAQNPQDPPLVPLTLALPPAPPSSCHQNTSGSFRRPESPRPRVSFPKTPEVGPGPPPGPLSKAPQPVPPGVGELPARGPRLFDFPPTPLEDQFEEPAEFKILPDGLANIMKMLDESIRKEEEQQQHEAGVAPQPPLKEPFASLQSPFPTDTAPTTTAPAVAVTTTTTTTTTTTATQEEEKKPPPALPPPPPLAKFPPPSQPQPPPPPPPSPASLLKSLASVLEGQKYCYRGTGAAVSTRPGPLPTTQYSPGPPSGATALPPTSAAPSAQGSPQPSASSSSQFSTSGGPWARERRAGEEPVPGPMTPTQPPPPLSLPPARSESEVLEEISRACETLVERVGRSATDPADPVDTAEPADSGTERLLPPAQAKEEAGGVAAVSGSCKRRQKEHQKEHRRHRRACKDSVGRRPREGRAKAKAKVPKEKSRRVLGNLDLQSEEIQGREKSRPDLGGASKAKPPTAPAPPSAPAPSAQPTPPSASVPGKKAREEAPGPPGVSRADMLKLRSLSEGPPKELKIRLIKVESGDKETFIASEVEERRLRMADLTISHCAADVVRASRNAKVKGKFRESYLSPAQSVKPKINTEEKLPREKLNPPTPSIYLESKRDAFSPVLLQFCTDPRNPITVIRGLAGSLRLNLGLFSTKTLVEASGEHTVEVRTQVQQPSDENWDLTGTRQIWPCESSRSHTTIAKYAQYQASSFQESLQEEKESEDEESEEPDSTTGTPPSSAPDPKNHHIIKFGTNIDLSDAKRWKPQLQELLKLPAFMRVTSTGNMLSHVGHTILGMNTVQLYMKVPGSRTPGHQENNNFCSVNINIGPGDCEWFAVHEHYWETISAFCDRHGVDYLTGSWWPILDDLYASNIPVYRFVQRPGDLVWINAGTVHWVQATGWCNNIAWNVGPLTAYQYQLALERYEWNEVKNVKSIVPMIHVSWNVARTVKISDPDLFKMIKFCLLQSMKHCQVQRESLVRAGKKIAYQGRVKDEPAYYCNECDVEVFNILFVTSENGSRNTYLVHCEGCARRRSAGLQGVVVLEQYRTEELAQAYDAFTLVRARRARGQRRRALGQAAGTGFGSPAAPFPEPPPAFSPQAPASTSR
Method: Histone demethylase assays were performed in 384 well white plates (Corning 3574). Demethylase buffer conditions for FLAG-JARID1B were as follows: 10 μM α-KG, 100 μM ascorbate, 50 μM (NH4)2Fe(SO4)2, 50 mM Hepes (pH 7.5), 0.01% (v/v) Tween 20, and 0.1% (w/v) bovine serum albumin. The demethylase reactions included 64 nM bio-H3K4me3 peptide alone or in the presence of 4 nM FLAG-JARID1B enzyme in a 10 μl reaction at 25° C. for 30 minutes. As a positive control, 64 nM bio-H3K4me2 peptide was assayed in the absence of enzyme. Assay conditions for FLAG-JARID1C is the same as for FLAG-JARID1B except that 20 nM enzyme was used. For FLAG-JARID1A, the demethylase buffer was similar to FLAG-JARID1B, except that 125 μM α-KG and 13 nM FLAG-JARID1A enzyme were used. […]
The AlphaScreen General IgG (Protein A) detection kit was obtained from PerkinElmer. Demethylated H3K4 products were detected using AlphaScreen antibody/bead mix containing 7.5 mM ethylenediaminetetraacetic acid (EDTA) and 0.15 μg/ml anti-H3K4me1 antibody in a final volume of 20 μl. […] The luminescence signal was measured using the Envision (PerkinElmer) or Pherastar (BMG Labtech) Platereaders.

YUAME melanoma cells = experiment: WST-1 cell proliferation assay; assay type: cell-based, human; settings: 0, 10 and 30 μM
Method: (§1) The colorimetric assay (WST-1 reagent) from Roche (11644807001) was performed in 96 well white clear bottom plates (Costar, 3610). 1,000 cells were seeded per well (in quadruplicate) overnight, and PBIT was added to the cells to the indicated concentration for 72 hrs. 0.01% DMSO was included as the control. The WST-1 reagent was added (5 μl per well) for 4 hrs, and OD 440 nm absorbance (which reflects the number of viable cells) was measured with the BioTek Synergy Mx Platereader.
(§2) A panel of mouse and human melanoma cells was treated with 0, 10 and 30 μM PBIT and their proliferation rates were assessed using WST-1 assays.

YULAC melanoma cells = experiment: WST-1 cell proliferation assay; assay type: cell-based, human; settings: 0, 10 and 30 μM
Method: as §1, §2

YURIF melanoma cells = experiment: WST-1 cell proliferation assay; assay type: cell-based, human; settings: 0, 10 and 30 μM
Method: as §1, §2

MCF7 cells = experiment: Histone extraction and western blot of H3K4 methylation; assay type: cell-based, human; settings: 10 μM, 72 hours, histone extracts
Method: MCF7 cells treated with PBIT (10 μM) or DMSO (0.1%) for 72 hours were harvested and lysed with PBS containing 0.5% Triton X-100. Nuclei were spun down by centrifugation at 6,500×g for 10 minutes, and the pellets were re-suspended in 0.2 N HCl. The histones were extracted overnight, and cellular debris was removed by centrifugation. The samples were loaded onto 16% SDS-PAGE gels and probed with antibodies against H3K4me3, H3K4me2, H3K4me1 and H3.
To determine whether PBIT affects H3K4 methylation globally in vivo, H3K4 methylation levels were analyzed in histone extracts prepared from MCF7 cells after exposure to PBIT.

## Cc1ccc(-n2sc3ccccc3c2=O)cc1 [PBIT, 2-4(4-methylphenyl)-1,2-benzisothiazol-3(2H)-one]
[1]
  JARID1B overexpression-induced decrease of H3K4me3: prevented; also recorded: decrease was blocked
JMJD3
  JMJD3 demethylase activity: minimal effect; also recorded: did not inhibit
YUAME melanoma cells
  sensitivity of proliferation to treatment (WST-1): sensitive
YULAC melanoma cells
  sensitivity of proliferation to treatment (WST-1): sensitive
YURIF melanoma cells
  sensitivity of proliferation to treatment (WST-1): least sensitive
MCF7 cells
  H3K4me1 levels: did not change significantly
  H3K4me2 levels: did not change significantly
  H3K4me3 levels: increased; also recorded: dramatic increase
